Results from US5278150A, “2-hydrazoadenosines and their utility for the treatmeat of vascular conditions” (Whitby Research, Inc., priority 1992, dated 1994).
Where two headings read alike, the source gives them in different places.

What was measured:
[1] = tested on: A2 adenosine receptor
Protocol: (§1) The perfusion buffer consisted of 120 mM NaCl, 27 mM NaHCO3, 3.7 mM KCl, 1.3 mM KH2 PO4, 0.64 mM MgSO4, 1.3 mM CaCl2, 2 mM pyruvate, and 5 mM glucose. […] Continuous drainage of the left ventricle by means of a catheter inserted across the mitral valve insured that this cardiac chamber did no external work. An electrode in the right ventricle monitored the electrocardiogram. Timed collections of cardiac effluent in a graduated cylinder during the steady-state phase of the flow responses to compound administration measured total coronary flow, which was also monitored by an in-line electromagnetic flowmeter in the aortic perfusion cannula. The quotient of the ratio of compound infusion (mol/min) divided by coronary flow rate (L/min) equals agonist concentration in the perfusate. […] The quotient of the EC50 of stimulus-QRS prolongation divided by the EC50 of coronary vasodilation provided an index of selectivity.

[2] = tested on: guinea pig heart; assay: Second degree heart block (Wenckebach point), Langendorff guinea pig heart; conditions: for minimal effective concentration: Cavia porcellus, read-out: Wenckbach
Protocol: An electrode in the right ventricle monitored the electrocardiogram. […] The rate of agonist infusion was increased stepwise at intervals of 3-4 minutes until the appearance of second degree heart block (Wenckebach point).

[3] = target: A2 adenosine receptor (Cavia porcellus, UniProt P46616)
Protocol: as §1

[4] = in words; cited from earlier work
[5] = target: T1, A1 adenosine receptor (Cavia porcellus, UniProt P47745); conditions: BIOASSAY RESULTS table
T1 sequence (P47745 1-326): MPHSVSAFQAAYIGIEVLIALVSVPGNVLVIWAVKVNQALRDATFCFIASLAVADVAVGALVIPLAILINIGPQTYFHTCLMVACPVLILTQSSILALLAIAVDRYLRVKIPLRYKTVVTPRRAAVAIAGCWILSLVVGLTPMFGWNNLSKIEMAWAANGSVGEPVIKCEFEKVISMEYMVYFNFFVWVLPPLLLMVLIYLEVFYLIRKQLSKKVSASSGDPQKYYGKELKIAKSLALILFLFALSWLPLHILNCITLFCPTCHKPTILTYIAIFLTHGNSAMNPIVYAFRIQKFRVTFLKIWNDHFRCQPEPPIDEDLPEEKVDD
Protocol: as §1

[6] = target: T1, A1 adenosine receptor
Protocol: as §1

[7] = target: A2 adenosine receptor; conditions: read-out: EC50 for coronary vasodilation; coronary arteries (vasodilation); cited from earlier work
[8] = EC50 -CF, coronary vasodilation, perfused guinea pig heart paced at 260 beats/min
[9] = EC50-SQPR divided by EC50-CF, >1 indicates selectivity for A2 adenosine receptor
[10] = -LOG EC50 A1, BIOASSAY RESULTS table, A1
[11] = concentration at appearance of second degree heart block
[12] = -LOG EC50 A2, BIOASSAY RESULTS table, A2
[13] = EC50 -SQPR, prolongation of stimulus-QRS interval by 50% of maximum response, perfused guinea pig heart

Sequence of A2 adenosine receptor (Cavia porcellus, UniProt P46616) (P46616 whole entry): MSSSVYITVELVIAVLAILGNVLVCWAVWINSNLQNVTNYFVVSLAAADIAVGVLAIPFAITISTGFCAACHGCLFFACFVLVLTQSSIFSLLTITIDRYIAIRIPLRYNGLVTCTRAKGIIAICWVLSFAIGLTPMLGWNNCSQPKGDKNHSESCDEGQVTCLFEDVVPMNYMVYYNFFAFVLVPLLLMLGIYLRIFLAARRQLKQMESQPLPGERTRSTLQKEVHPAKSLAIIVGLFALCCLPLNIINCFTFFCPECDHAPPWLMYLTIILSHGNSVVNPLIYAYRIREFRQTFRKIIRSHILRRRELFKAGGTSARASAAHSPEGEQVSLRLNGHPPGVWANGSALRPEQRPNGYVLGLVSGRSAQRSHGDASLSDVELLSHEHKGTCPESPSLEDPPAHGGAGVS

Compound: Cc1cccc(C=NNc2nc(N)c3ncn([C@@H]4O[C@H](CO)[C@@H](O)[C@H]4O)c3n2)c1 [Example 16, 6-amino-2-{2-[(3-methylphenyl)methylene]diazanyl}-9-(β-D-ribofuranosyl)-9H-purine]
- Selectivity (SQPR/CF) [1]: 4700
- minimal effective concentration [2]: 47 µM
- EC50 [3, 8]: 0.0044 µM

Compound: Nc1ncnc2c1ncn2[C@@H]1O[C@H](CO)[C@@H](O)[C@H]1O [Adenosine, 9-β-D-ribofuranosyl-9H-purin-6-amine]
- cardiovascular activity [4]: hypotensive and bradycardia activity

Compound: Nc1nc(NN=CC2CC=CCC2)nc2c1ncn2[C@@H]1O[C@H](CO)[C@@H](O)[C@H]1O (some centres unmarked) [3-Cyclo-hexenyl, H]
- -LOG EC50 A1 [5]: 4.86

Compound: Nc1nc(NN=Cc2ccc3ccccc3c2)nc2c1ncn2[C@@H]1O[C@H](CO)[C@@H](O)[C@H]1O [Example 4, 6-amino-2-{2-[(2-naphthyl)methylene]diazanyl}-9-(β-D-ribofuranosyl)-9H-purine]
- Selectivity (SQPR/CF) [1, 9]: 767
- EC50 [6, 10]: 2.63 µM
- minimal effective concentration [2, 11]: 10.1 µM
- EC50 [3, 12]: 0.00417 µM
- EC50 [3, 8]: 0.0042 µM

Compound: Nc1nc(NN=CCCCc2ccccc2)nc2c1ncn2[C@@H]1O[C@H](CO)[C@@H](O)[C@H]1O [3-Ph Propyl, H]
- EC50 [6, 10]: 66.1 µM
- EC50 [3, 12]: 0.00195 µM

Compound: Nc1nc(NN=Cc2ccncc2)nc2c1ncn2[C@@H]1O[C@H](CO)[C@@H](O)[C@H]1O [Example 6, 6-amino-2-{2-[(4-pyridyl)methylene]diazanyl}-9-(β-D-ribofuranosyl)-9H-purine]
- Selectivity (SQPR/CF) [1, 9]: 2,817
- minimal effective concentration [2, 11]: 68 µM
- EC50 [3, 8]: 0.011 µM

Compound: Nc1nc(NN=Cc2cccc3ccccc23)nc2c1ncn2[C@@H]1O[C@H](CO)[C@@H](O)[C@H]1O [Example 14, 6-amino-2-{2-[(1-naphthyl)methylene]diazanyl}-9-(β-D-ribofuranosyl)-9H-purine]
- Selectivity (SQPR/CF) [1, 9]: 110
- minimal effective concentration [2, 11]: 2 µM
- EC50 [3, 8]: 0.0095 µM

Compound: Nc1nc(NN=Cc2ccc(Cl)cc2)nc2c1ncn2[C@@H]1O[C@H](CO)[C@@H](O)[C@H]1O [Example 1, 6-amino-2-{2-[(4-chlorophenyl)methylene]diazanyl}-9-(β-D-ribofuranosyl)-9H-purine]
- minimal effective concentration [2, 11]: 30.4 µM

Compound: NNc1nc(N)c2ncn([C@@H]3O[C@H](CO)[C@@H](O)[C@H]3O)c2n1 [Example 8, 6-amino-2-diazanyl-9-(β-D-ribofuranosyl)-9H-purine, reference compound]
- Selectivity (SQPR/CF) [1, 9]: 301
- EC50 [6, 10]: 20 µM
- EC50 [6, 13]: 14.6 µM
- minimal effective concentration [2, 11]: 18.2 µM
- EC50 [3, 12]: 0.0794 µM
- EC50 [3, 8]: 0.0804 µM

Compound: CC(=NNc1nc(N)c2ncn([C@@H]3O[C@H](CO)[C@@H](O)[C@H]3O)c2n1)c1ccc(F)cc1 [Example 10, 6-amino-2-{2-[1-(4-fluorophenyl)ethylidene]diazanyl}-9-(β-D-ribofuranosyl)-9H-purine]
- Selectivity (SQPR/CF) [1, 9]: 1,822
- EC50 [6, 10]: 4.17 µM
- minimal effective concentration [2, 11]: 7.3 µM
- EC50 [3, 12]: 0.00324 µM
- EC50 [3, 8]: 0.0032 µM

Compound: CC(=NNc1nc(N)c2ncn([C@@H]3O[C@H](CO)[C@@H](O)[C@H]3O)c2n1)c1ccccc1 [Example 12, 6-amino-2-{2-[1-(phenyl)ethylidene]diazanyl}-9-(β-D-ribofuranosyl)-9H-purine]
- Selectivity (SQPR/CF) [1, 9]: 380
- minimal effective concentration [2, 11]: 11 µM
- EC50 [3, 8]: 0.013 µM

Compound: Nc1nc(NN=CCCC2CCCCC2)nc2c1ncn2[C@@H]1O[C@H](CO)[C@@H](O)[C@H]1O [2-C Hexylethyl, H]
- EC50 [6, 10]: 9.77 µM

Compound: Cc1ccc(C=NNc2nc(N)c3ncn([C@@H]4O[C@H](CO)[C@@H](O)[C@H]4O)c3n2)cc1 [Example 9, 6-amino-2-{2-[(4-methylphenyl)methylene]diazanyl}-9-(β-D-ribofuranosyl)-9H-purine]
- EC50 [6, 10]: 39.8 µM
- Wenckbach ([2]; second degree heart block, unit printed nmol (Example 9)): 103,514 nmol

Compound: Nc1nc(NN=Cc2cccs2)nc2c1ncn2[C@@H]1O[C@H](CO)[C@@H](O)[C@H]1O [Example 15, 6-amino-2-{2-[(2-thienyl)methylene]diazanyl}-9-(β-D-ribofuranosyl)-9H-purine]
- Selectivity (SQPR/CF) [1, 9]: 4400
- minimal effective concentration [2, 11]: 93 µM
- EC50 [3, 8]: 0.014 µM

Compound: CCCCCC=NNc1nc(N)c2ncn([C@@H]3O[C@H](CO)[C@@H](O)[C@H]3O)c2n1 [1-Pent, H]
- EC50 [6, 10]: 38.9 µM
- EC50 [3, 12]: 0.00102 µM

Compound: Nc1nc(OCCC2CCCCC2)nc2c1ncn2[C@@H]1O[C@H](CO)[C@@H](O)[C@H]1O [2-(2-cyclohexylethoxy)adenosine]
- EC50 [7]: 0.001 µM

Compound: Nc1nc(NN=CC2CCCCC2)nc2c1ncn2[C@@H]1O[C@H](CO)[C@@H](O)[C@H]1O [Example 3, 6-amino-2-{2-[(cyclohexyl)methylene]diazanyl}-9-(β-D-ribofuranosyl)-9H-purine]
- Selectivity (SQPR/CF) [1]: 16,472
- EC50 [6, 10]: 3.55 µM
- EC50 [6, 13]: 3.55 µM
- minimal effective concentration [2]: 5.92 µM
- EC50 [3, 12]: 0.000257 µM
- EC50 [3, 8]: 0.0003 µM

Compound: CC(C)CCC=NNc1nc(N)c2ncn([C@@H]3O[C@H](CO)[C@@H](O)[C@H]3O)c2n1 [3-Me-1-Bu, H]
- EC50 [6, 10]: 20.9 µM
- EC50 [3, 12]: 0.000468 µM

Compound: COc1ccc(C=NNc2nc(N)c3ncn([C@@H]4O[C@H](CO)[C@@H](O)[C@H]4O)c3n2)cc1 [Example 11, 6-amino-2-{2-[(4-methoxyphenyl)methylene]diazanyl}-9-(β-D-ribofuranosyl)-9H-purine]
- minimal effective concentration [2, 11]: 50 µM

Compound: Nc1nc(NN=Cc2cccnc2)nc2c1ncn2[C@@H]1O[C@H](CO)[C@@H](O)[C@H]1O [Example 5, 6-amino-2-{2-[(3-pyridyl)methylene]diazanyl}-9-(β-D-ribofuranosyl)-9H-purine]
- Selectivity (SQPR/CF) [1, 9]: 2,657
- minimal effective concentration [2, 11]: 63.5 µM
- EC50 [3, 8]: 0.015 µM

Compound: Nc1nc(NN=Cc2ccccn2)nc2c1ncn2[C@@H]1O[C@H](CO)[C@@H](O)[C@H]1O [Example 13, 6-amino-2-{2-[(2-pyridyl)methylene]diazanyl}-9-(β-D-ribofuranosyl)-9H-purine]
- Selectivity (SQPR/CF) [1, 9]: 42,000
- minimal effective concentration ([2]; second degree heart block, unit inferred): 110 µM
- EC50 [3, 8]: 0.0057 µM

Compound: Nc1nc(NN=Cc2ccc(F)cc2)nc2c1ncn2[C@@H]1O[C@H](CO)[C@@H](O)[C@H]1O [Example 2, 6-amino-2-{2-[(4-fluorophenyl)methylene]diazanyl}-9-(β-D-ribofuranosyl)-9H-purine]
- Selectivity (SQPR/CF) [1, 9]: 8,500
- EC50 [6, 13]: 12.6 µM
- minimal effective concentration [2, 11]: 30.9 µM
- EC50 [3, 12]: 0.00245 µM
- EC50 [3, 8]: 0.0025 µM

Compound: Nc1nc(NN=Cc2ccccc2)nc2c1ncn2[C@@H]1O[C@H](CO)[C@@H](O)[C@H]1O [Example 7, 6-amino-2-{2-(phenylmethylene)diazanyl}-9-(β-D-ribofuranosyl)-9H-purine]
- Selectivity (SQPR/CF) [1, 9]: 43,347
- EC50 [6, 10]: 83.2 µM
- minimal effective concentration [2, 11]: 216 µM
- EC50 [3, 12]: 0.00229 µM
- EC50 [3, 8]: 0.0023 µM

Compound: Nc1nc(NN=CCCCC2CCCCC2)nc2c1ncn2[C@@H]1O[C@H](CO)[C@@H](O)[C@H]1O [3-C Hexylpropyl, H]
- EC50 [6, 10]: 66.1 µM
- EC50 [3, 12]: 0.00178 µM

Compound: Nc1nc(N)c2ncn([C@@H]3O[C@H](CO)[C@@H](O)[C@H]3O)c2n1 [2-Amino-adenosine, reference compound]
- EC50 [6]: 11.2 µM
- EC50 [3, 12]: 0.224 µM
